In US20240408064A1, “RAS INHIBITORS, COMPOSITIONS AND METHODS OF USE THEREOF” (GENETOLEAD INC., priority 2021, published 2024):
Entries after “also recorded” stand apart in the source; their conditions may differ. Where two headings read alike, the source gives them in different places.

Columns and labels:
HRas^G12V [1] = target: T1, HRas^G12V (Homo sapiens (Human), UniProt P01112, G12V); assay: 19F DLB (ligand-observed 19F NMR) score; assay type: binding; parameters: scale not given here
In short: (§1)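 In the T2-CPMG experiment, echo spacing was 1 ms and total delays ranged over eight values from 1 to 800 ms. Both scores come from 600 MHz NMR of 50 μM HRas G12V mixed with fragment pools at 240 μM each, in phosphate buffer pH 7.4 with NaCl, MgCl2 and TCEP-d16. Ligand-observed 19F spectra were recorded with 1H decoupling, 64 scans and a 5 s relaxation delay.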

HRas^G12V [2] = target: T1, HRas^G12V; assay: 19F T2-CPMG NMR score; assay type: binding
In short: as §1

HRas^G12V [3] = target: T1, HRas^G12V; assay: Dissociation constant by NMR (1H/15N Fast-HSQC, 1H 1D protein-observed); assay type: binding
Procedure: All NMR experiments were collected using 3 mm NMR tubes on a 600 MHz Bruker Avance III spectrometer equipped with a QCI helium cryoprobe and a SampleJet sample changer. The buffer used for NMR experiments was 25 mM sodium phosphate pH 7.4, 150 mM NaCl, 5 mM MgCl2, 1 mM TCEP-d16, 10% D2O. Data were processed using Bruker TopSpin.
^1H/^15N Fast-HSQC experiments (Mori et al., Journal of Magnetic Resonance, Series B, Volume 108, Issue 1, July 1995, Pages 94-98) were recorded at a protein concentration of 50-100 μM.
Dissociation constants were obtained by monitoring changes in chemical shifts as a function of ligand concentration. The changes in chemical shifts (d) were calculated according to the following equation (Williamson, Progress in Nuclear Magnetic Resonance Spectroscopy, Volume 73, August 2013, Pages 1-16): d=√(1/2[δ_H^2+[…]]), Where δ are the changes in chemical shift in ppm for ^1H and ^15N and the correction factor (α) was set at 0.15.
^1H 1D protein-observed experiments were recorded with 15-50 μM protein. The standard Bruker 1D ^1H sequence with excitation sculpting (zgesgp) was employed. A relaxation delay of 1 s was employed in order to use 256 scans while still keeping experimental time fairly short. Changes in protein chemical shift or peak intensity in the methyl region were monitored against compound concentration.

HRas^G12V [4] = target: T1, HRas^G12V; assay: Overall binding/activity in the various assays (NMR consensus binding)
In short: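 Fragments (240 µM each, pooled) screened against 50 µM HRas^G12V in 25 mM sodium phosphate pH 7.4, 150 mM NaCl, 5 mM MgCl2, 1 mM TCEP-d16 by 1H-decoupled 1D 19F NMR. Hits confirmed by ligand- and protein-observed 1D 1H, STD and T2-CPMG (aggregation check); consensus binding ranked, with 15N HSQC for sites and Kd.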

Compound | 19F DLB Score (HRas^G12V [1]) | 19F T2-CPMG Score (HRas^G12V [2]) | Kd (HRas^G12V [3]; HRas^G12V, read-out: NMR Kd) [mM] | Binding to HRas^G12V (in words) (HRas^G12V [4]) | Activity ranking on HRas^G12V (in words) (HRas^G12V [4]) | Kd (HRas^G12V [3]) [mM]
CS(=O)(=O)NCCc1c[nH]c2cc(F)ccc12 [Compound 10006, reference compound] | 3.24 | 19.5 | 10 | – | – | –
COCCNC(=O)Cc1c[nH]c2cc(F)ccc12 [Compound 10025] | 1.22 | 1.68 | 6 | low or no binding | – | –
CC(CCO)NC(=O)Cc1c[nH]c2cc(F)ccc12 (stereo not drawn) [Compound 10026] | 1.23 | 3.17 | 10 | low or no binding | – | –
O=C(Cc1c[nH]c2cc(F)ccc12)NC1CCOCC1 [Compound 10027] | 1.42 | 3.77 | 7.4 | low or no binding | – | –
O=C(Cc1c[nH]c2ncc(F)cc12)N1CCC1 [Compound 10035, 1-(azetidin-1-yl)-2-(5-fluoro-1H-pyrrolo[2,3-b]pyridin-3-yl)ethan-1-one] | 0.91 | −0.11 | > 10 | – | More active | –
CC(=O)N[C@H]1CCN(C(=O)Cc2c[nH]c3cc(F)ccc23)C1 [Compound 10041] | 1.86 | 3.92 | 5.2 to 9 | – | – | –
O=C1CCN(C(=O)Cc2c[nH]c3cc(F)ccc23)CC1 [Compound 10106] | 2.25 | 13.41 | – | – | – | 6.43
NC(=O)C1CN(C(=O)Cc2c[nH]c3cc(F)ccc23)C1 [Compound 10114, 1-(2-(6-fluoro-1H-indol-3-yl)acetyl)azetidine-3-carboxamide] | 2.14 | 15.2 | 11.1 | – | – | –
CN(C)C[C@H]1CN(C(=O)Cc2c[nH]c3cc(F)ccc23)CCO1 [Compound 10160, (S)-1-(2-((dimethylamino)methyl)morpholino)-2-(6-fluoro-1H-indol-3-yl) ethan-1-one] | 6.24 | – | 1.28 | – | – | –
CN1CCN(C(=O)Cc2c[nH]c3cc(F)ccc23)C[C@@H]1C(=O)O [Compound 10173] | 1.33 | 3.79 | – | low or no binding | – | –
CC1CN(C(=O)Cc2c[nH]c3cc(F)cnc23)C1 [Compound 10174, 2-(6-fluoro-1H-pyrrolo[3,2-b]pyridin-3-yl)-1-(3-methylazetidin-1-yl) ethan-1-one] | 1.14 | 2.32 | – | low or no binding | – | –
O=C(O)C[C@@H]1CN(C(=O)Cc2c[nH]c3cc(F)ccc23)CCO1 [Compound 10175] | 1.19 | 2.15 | – | low or no binding | – | –
CC1CN(C(=O)Cc2cc3cc[nH]c3cc2F)C1 [Compound 10176, 2-(6-fluoro-1H-indol-5-yl)-1-(3-methylazetidin-1-yl) ethan-1-one] | 1.01 | 0.19 | – | low or no binding | – | –
CCOC(=O)C[C@H]1CN(C(=O)Cc2c[nH]c3cc(F)ccc23)CCO1 [Compound 10177, Ethyl (S)-2-(4-(2-(6-fluoro-1H-indol-3-yl)acetyl)morpholin-2-yl)acetate] | 1.12 | 7.14 | – | low or no binding | – | –
O=C(O)C[C@H]1CN(C(=O)Cc2c[nH]c3cc(F)ccc23)CCO1 [Compound 10178, (S)-2-(4-(2-(6-fluoro-1H-indol-3-yl)acetyl)morpholin-2-yl)acetic acid] | 1.11 | 2.74 | – | low or no binding | – | –
COC(=O)Cc1c[nH]c2cc(F)ccc12 [Compound 11001] | 1.76 | 6.77 | – | low or no binding | – | –
O=C1CC(c2c[nH]c3cc(F)ccc23)C(=O)N1 (stereo not drawn) [Compound 11006] | 3.43 | 24.24 | – | – | More active; also recorded: Most active | –
Fc1ccc2c(C3CCNC3)c[nH]c2c1 (stereo not drawn) [Compound 11007] | 1.76 | 6.67 | – | low or no binding | – | –
CN(C)CC(=O)Nc1ccc(NC(=O)Cc2c[nH]c3cc(F)ccc23)cc1 [Compound 11008] | 6.41 | 38.4 | – | – | More active; also recorded: Most active | –

Compound | 19F DLB Score (HRas^G12V [1]) | 19F T2-CPMG Score (HRas^G12V [2]) | Kd (HRas^G12V [3]; HRas^G12V, read-out: NMR Kd) [mM] | Binding to HRas^G12V (in words) (HRas^G12V [4]) | Activity ranking on HRas^G12V (in words) (HRas^G12V [4]) | Kd (HRas^G12V [3]) [mM]
Fc1ccc2c(C3=CCNCC3)c[nH]c2c1 [Compound 11011] | 1.52 | 5.22 | – | low or no binding | – | –
CC(C)(C)OC(=O)n1cc(CC#N)c2ccc(F)cc21 [Compound 11013] | 0.4 | 1.74 | – | low or no binding | – | –
CN(C)CC(=O)Nc1ccccc1NC(=O)Cc1c[nH]c2cc(F)ccc12 [Compound 11014] | 1.44 | 3.32 | – | low or no binding | – | –
CCOC(=O)C(C#N)c1c[nH]c2cc(F)ccc12 (stereo not drawn) [Compound 11016] | 1.74 | 5.57 | – | low or no binding | – | –
O=C(c1ccccc1)N1CCC(c2c[nH]c3cc(F)ccc23)CC1 [Compound 11025] | 1 | −2.12 | – | low or no binding | – | –
O=C(c1ccc(F)cc1F)N1CCC(c2c[nH]c3cc(F)ccc23)CC1 [Compound 11026] | 2.02 | −1.86 | – | low or no binding | – | –
CC1(C)OC(=O)C(C(c2ccccc2F)c2c[nH]c3cc(F)ccc23)C(=O)O1 (stereo not drawn) [Compound 11041] | 1.65 | 3.61 | – | low or no binding | – | –
CC1(C)OC(=O)C(C(c2ccccc2F)c2c[nH]c3cc(F)ccc23)C(=O)O1 (stereo not drawn) [Compound 11042] | 1.56 | 5.62 | – | low or no binding | – | –
O=C(O)CC(c1ccccc1F)c1c[nH]c2cc(F)ccc12 (stereo not drawn) [Compound 11043] | 3.27 | 20.23 | – | – | More active | –
CN(C)CC(=O)Nc1cccc(NC(=O)Cc2c[nH]c3cc(Cl)cc(F)c23)c1 [Compound 11072] | 0.08 | 1.02 | – | low or no binding | – | –
CN(C)CC(=O)Nc1cccc(NC(=O)Cc2c[nH]c3cc(F)cc(Cl)c23)c1 [Compound 11073] | <LLOQ | <LLOQ | – | – | More active; also recorded: Most active | –
CN(C)Cc1c[nH]c2ccc(F)cc12 [FS-1254, reference compound] | 1.15 | 0.74 | – | low or no binding | – | –
O=C(CN1CCCCC1)c1c[nH]c2cc(F)ccc12 [compound 10076] | 3.34 | 37.86 | – | – | More active | –
CC(=O)N1CC[C@H](NC(=O)Cc2c[nH]c3cc(F)ccc23)C1 [compound 10090] | 1.51 | 6.28 | – | low or no binding | – | –
COCCOc1cccc(NC(=O)Cc2c[nH]c3cc(F)ccc23)c1 [compound 10094] | 3 | 2.5 | – | low or no binding | – | –
CC(=O)N[C@@H]1CCCN(C(=O)Cc2c[nH]c3cc(F)ccc23)C1 [compound 10137] | 2.02 | 6.16 | – | low or no binding | – | –
COC[C@@H]1CN(C(=O)Cc2c[nH]c3cc(F)ccc23)CCO1 [compound 10155] | 1.49 | 8.16 | – | low or no binding | – | –
CC(=O)NC[C@@H]1CN(C(=O)Cc2c[nH]c3cc(F)ccc23)CCO1 [compound 10164] | 1.61 | 5.59 | – | low or no binding | – | –
